Earlier results in patent US20200316043A1, “PHARMACEUTICAL COMPOSITION COMPRISING CLEVIDIPINE AND PROCESS FOR PREPARATION THEREOF” (Aurobindo Pharma Ltd., priority 2017, published 2020).

Tests used:
[1] = biological target: ileal and aortic smooth muscle and cardiac muscle (Homo sapiens, UniProt Q13936); conditions: EDTA treatment of ileal and aortic smooth muscle and cardiac muscle
ileal and aortic smooth muscle and cardiac muscle, sequence (Q13936 whole entry): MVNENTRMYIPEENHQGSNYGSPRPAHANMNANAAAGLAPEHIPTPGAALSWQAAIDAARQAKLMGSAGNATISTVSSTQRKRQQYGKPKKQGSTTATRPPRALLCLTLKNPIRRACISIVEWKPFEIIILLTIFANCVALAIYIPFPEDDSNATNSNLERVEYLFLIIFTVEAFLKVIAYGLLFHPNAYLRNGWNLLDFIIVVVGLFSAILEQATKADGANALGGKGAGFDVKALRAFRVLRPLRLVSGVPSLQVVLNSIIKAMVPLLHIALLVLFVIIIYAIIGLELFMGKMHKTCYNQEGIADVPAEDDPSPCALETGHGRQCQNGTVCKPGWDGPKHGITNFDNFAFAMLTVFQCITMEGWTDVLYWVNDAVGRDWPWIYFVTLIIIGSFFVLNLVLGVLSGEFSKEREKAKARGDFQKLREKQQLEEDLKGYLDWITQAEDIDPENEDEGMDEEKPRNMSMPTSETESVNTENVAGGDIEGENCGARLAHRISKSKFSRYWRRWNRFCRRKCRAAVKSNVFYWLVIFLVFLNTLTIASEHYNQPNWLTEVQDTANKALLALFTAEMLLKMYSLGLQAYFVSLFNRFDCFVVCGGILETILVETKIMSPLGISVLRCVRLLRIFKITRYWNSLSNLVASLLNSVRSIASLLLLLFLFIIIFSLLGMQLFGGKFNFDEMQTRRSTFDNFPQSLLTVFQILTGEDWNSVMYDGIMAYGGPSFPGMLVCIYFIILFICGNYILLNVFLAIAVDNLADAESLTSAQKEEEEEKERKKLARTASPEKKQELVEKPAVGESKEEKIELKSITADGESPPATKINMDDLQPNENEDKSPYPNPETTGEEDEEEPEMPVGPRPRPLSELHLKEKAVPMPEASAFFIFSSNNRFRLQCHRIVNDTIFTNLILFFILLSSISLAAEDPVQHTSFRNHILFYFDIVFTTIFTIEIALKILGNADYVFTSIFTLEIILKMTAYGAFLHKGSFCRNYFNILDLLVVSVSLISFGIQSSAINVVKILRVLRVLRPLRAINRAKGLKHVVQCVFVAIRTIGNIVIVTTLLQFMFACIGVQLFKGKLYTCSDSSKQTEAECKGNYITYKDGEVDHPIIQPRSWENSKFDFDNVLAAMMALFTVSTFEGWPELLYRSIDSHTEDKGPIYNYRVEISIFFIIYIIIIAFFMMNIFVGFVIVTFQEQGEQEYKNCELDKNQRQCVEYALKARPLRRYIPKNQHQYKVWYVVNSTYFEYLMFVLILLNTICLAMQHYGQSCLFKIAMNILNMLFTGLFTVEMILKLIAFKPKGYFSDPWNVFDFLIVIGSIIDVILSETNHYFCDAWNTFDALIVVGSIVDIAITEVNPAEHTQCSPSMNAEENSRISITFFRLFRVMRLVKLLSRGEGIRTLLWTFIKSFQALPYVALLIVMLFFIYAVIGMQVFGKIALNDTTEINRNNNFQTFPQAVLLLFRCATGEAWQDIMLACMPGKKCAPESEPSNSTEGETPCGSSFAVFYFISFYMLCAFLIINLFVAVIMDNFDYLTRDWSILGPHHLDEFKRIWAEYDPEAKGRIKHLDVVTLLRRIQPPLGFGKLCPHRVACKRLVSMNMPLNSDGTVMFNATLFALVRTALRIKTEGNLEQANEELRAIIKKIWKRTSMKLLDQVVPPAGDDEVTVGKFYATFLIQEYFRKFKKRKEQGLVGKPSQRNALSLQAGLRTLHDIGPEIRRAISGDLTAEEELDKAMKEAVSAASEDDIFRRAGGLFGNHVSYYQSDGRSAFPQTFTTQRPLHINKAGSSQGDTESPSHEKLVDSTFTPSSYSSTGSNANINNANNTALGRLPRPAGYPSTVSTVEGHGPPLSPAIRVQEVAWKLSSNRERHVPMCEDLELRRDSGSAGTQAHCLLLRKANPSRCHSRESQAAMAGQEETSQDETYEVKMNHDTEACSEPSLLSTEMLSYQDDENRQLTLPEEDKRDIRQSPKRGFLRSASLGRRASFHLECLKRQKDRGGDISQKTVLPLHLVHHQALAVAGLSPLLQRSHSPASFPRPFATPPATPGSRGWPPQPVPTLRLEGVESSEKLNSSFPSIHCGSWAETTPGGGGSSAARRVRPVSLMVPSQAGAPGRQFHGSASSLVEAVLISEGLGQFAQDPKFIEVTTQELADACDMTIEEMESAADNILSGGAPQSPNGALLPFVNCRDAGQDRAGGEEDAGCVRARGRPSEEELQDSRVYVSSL

| solubility in lipids | solubility in water | reduction of specific [3H] nitrendipine binding [1] | Compound |
| --- | --- | --- | --- |
| moderate to high | low |  | CCCC(=O)OCOC(=O)C1=C(C)NC(C)=C(C(=O)OC)C1c1cccc(Cl)c1Cl (stereo not drawn) [Clevidipine, butyroxymethyl methyl 4-(2′,3′dichlorophenyl)-1,4-dihydro-2,6-dimethyl-3,5-pyridinedicarboxylate] |
|  |  | 70-95% | O=C(O)CN(CCN(CC(=O)O)CC(=O)O)CC(=O)O [EDTA, Ethylene Diaminetetraacetic acid] |
